Active and inactive are the calls of the source. No cut-off for these calls is given here.

For 1 molecule, Activity results are on record in ChEMBL document CHEMBL5036353, “Discovery of Pyrazolo[3,4-d]pyridazinone Derivatives as Selective DDR1 Inhibitors via Deep Learning Based Design, Synthesis, and Biological Evaluation” (J Med Chem, 2022).

For experiment [1], the system named is Macrophage. Briefly: Antiinflammatory activity against mouse primary bone marrow derived macrophages assessed as inhibition of LPS-induced IL-1beta expression at 10 uM by ELISA. The experiment is classed as functional, tissue-based. In general terms: An ELISA detects its analyte on a solid surface through an enzyme-linked reagent.
Experiment [2] deals with Mus musculus. Nature of the experiment: Anti-colitis activity against DSS-induced IBD C57BL/6 mouse model assessed as reduction in serum TNF expression at 5 to 10 mg/kg, po administered daily by ELISA. The class given is functional, organism-based. The conditions noted are these: dose 5-10 mg/kg.
Experiment [3] has as its system Mus musculus. Briefly: Anti-colitis activity against DSS-induced IBD C57BL/6 mouse model assessed as reduction in IL-6 transcription level in colon at 5 to 10 mg/kg, po administered daily by RT-qPCR analysis. The experiment is classed as functional, organism-based. Conditions: dose 5-10 mg/kg. On the technique in general: In qPCR the cycle at which signal appears reflects the starting amount.

In experiment [4] the test system is Mus musculus. Briefly: Anti-colitis activity against DSS-induced IBD C57BL/6 mouse model assessed as reduction in crypt loss in colon at 5 to 10 mg/kg, po administered daily measured after 9 days by HE staining based analysis. Conditions: dose 5-10 mg/kg, time 9.0 day. The class given is functional, organism-based.
For experiment [5], the system named is THP-1. Nature of the experiment: Antiinflammatory activity against human THP-1 derived macrophages assessed as inhibition of LPS-induced IL6 expression by ELISA. The experiment is classed as functional, cell-based. Conditions: dose 10.0 µM.
In experiment [6] the test system is THP-1. Briefly: Antiinflammatory activity against human THP-1 derived macrophage assessed as inhibition of LPS-induced IL-1beta expression at 10 uM by ELISA. The experiment is classed as functional, cell-based.
For experiment [7], the system named is Mus musculus. Briefly: Anti-colitis activity against DSS-induced IBD C57BL/6 mouse model assessed as reduction in inflammatory cell infiltration in colon at 5 to 10 mg/kg, po administered daily measured after 9 days by HE staining based analysis. The experiment is classed as functional, organism-based. The conditions noted are these: dose 5-10 mg/kg, time 9.0 day.

Experiment [8] deals with Mus musculus. Briefly: Anti-colitis activity against DSS-induced IBD C57BL/6 mouse model assessed as improvement in DSS induced weight loss at 5 to 10 mg/kg, po administered daily and measured after 5 to 8 days. The class given is functional, organism-based. The conditions noted are these: dose 5-10 mg/kg, time 5-8 day.
The subject of experiment [9] is Mus musculus. Nature of the experiment: Anti-colitis activity against DSS-induced IBD C57BL/6 mouse model assessed as reduction in severe epithelial destruction in colon at 5 to 10 mg/kg, po administered daily measured after 9 days by HE staining based analysis. The class given is functional, organism-based. The conditions noted are these: dose 5-10 mg/kg, time 9.0 day.

Experiment [10] concerns Mus musculus. Briefly: Anti-colitis activity against DSS-induced IBD C57BL/6 mouse model assessed as reduction in serum IL-1beta expression at 5 to 10 mg/kg, po administered daily by ELISA. The experiment is classed as functional, organism-based. Conditions: dose 5-10 mg/kg.
The subject of experiment [11] is Mus musculus. Briefly: Anti-colitis activity against DSS-induced IBD C57BL/6 mouse model assessed as reduction in TNF transcription level in colon at 5 to 10 mg/kg, po administered daily by RT-qPCR analysis. Conditions: dose 5-10 mg/kg. The class given is functional, organism-based.
For experiment [12], the system named is THP-1. Nature of the experiment: Antiinflammatory activity against human THP-1 derived macrophage assessed as inhibition of LPS-induced TNF expression at 10 uM by ELISA. The experiment is classed as functional, cell-based.
For experiment [13], the system named is Mus musculus. Briefly: Anti-colitis activity against DSS-induced IBD C57BL/6 mouse model assessed as improvement in DSS reduced colon length at 5 to 10 mg/kg, po administered daily and measured after 9 days. Conditions: dose 5-10 mg/kg, time 9.0 day. The experiment is classed as functional, organism-based.
Experiment [14] deals with Mus musculus. Briefly: Anti-colitis activity against DSS-induced IBD C57BL/6 mouse model assessed as reduction in fecal occult blood score at 5 to 10 mg/kg, po administered daily and measured after 9 days. The experiment is classed as functional, organism-based. The conditions noted are these: dose 5-10 mg/kg, time 9.0 day.
Experiment [15] relates to Mus musculus. Nature of the experiment: Anti-colitis activity against DSS-induced IBD C57BL/6 mouse model assessed as reduction in serum IL-6 expression at 5 to 10 mg/kg, po administered daily by ELISA. The experiment is classed as functional, organism-based. The conditions noted are these: dose 5-10 mg/kg.
Experiment [16] concerns Macrophage. Nature of the experiment: Antiinflammatory activity against mouse primary bone marrow derived macrophages assessed as inhibition of LPS-induced TNF expression at 10 uM by ELISA. The class given is functional, tissue-based.
The target in experiment [17] is NT-3 growth factor receptor (Homo sapiens) (UniProt Q16288). Briefly: Inhibition of recombinant human TRKC (510 to end residues) assessed as residual activity at 10 uM using GEEPLYWSFPAKKK as substrate incubated for 40 mins in presence of [gamma33P]ATP by scintillation counting based radiometry assay relative to control.
Sequence of NT-3 growth factor receptor (Homo sapiens) (Q16288 32-839 limits assumed): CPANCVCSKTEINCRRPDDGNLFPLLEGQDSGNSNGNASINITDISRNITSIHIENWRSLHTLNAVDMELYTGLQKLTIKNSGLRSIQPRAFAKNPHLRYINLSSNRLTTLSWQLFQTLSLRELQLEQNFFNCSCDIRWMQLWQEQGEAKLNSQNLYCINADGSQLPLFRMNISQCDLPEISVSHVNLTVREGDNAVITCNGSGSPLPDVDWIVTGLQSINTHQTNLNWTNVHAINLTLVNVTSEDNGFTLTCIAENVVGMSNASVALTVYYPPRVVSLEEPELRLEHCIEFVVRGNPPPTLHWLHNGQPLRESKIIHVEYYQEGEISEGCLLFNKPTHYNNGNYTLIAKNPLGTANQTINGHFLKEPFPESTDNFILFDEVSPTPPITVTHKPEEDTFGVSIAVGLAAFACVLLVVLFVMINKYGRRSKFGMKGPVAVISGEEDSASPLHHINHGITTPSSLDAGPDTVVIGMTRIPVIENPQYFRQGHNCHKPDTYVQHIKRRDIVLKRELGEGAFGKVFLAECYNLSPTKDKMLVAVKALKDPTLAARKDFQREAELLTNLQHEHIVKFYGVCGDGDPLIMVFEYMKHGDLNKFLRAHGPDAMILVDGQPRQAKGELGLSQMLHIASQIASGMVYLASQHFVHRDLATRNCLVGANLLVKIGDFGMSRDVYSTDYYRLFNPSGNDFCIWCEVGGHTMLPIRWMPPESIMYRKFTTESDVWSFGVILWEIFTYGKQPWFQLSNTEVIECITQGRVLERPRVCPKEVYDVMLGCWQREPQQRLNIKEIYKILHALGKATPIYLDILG
In experiment [18] the test system is Macrophage. Briefly: Antiinflammatory activity against mouse primary bone marrow derived macrophages assessed as inhibition of LPS-induced IL-6 expression by ELISA. The class given is functional, tissue-based. The conditions noted are these: dose 10.0 µM.
Experiment [19] concerns Mus musculus. Nature of the experiment: Anti-colitis activity against DSS-induced IBD C57BL/6 mouse model assessed as reduction in IL-1beta transcription level in colon at 5 to 10 mg/kg, po administered daily by RT-qPCR analysis. Conditions: dose 5-10 mg/kg. The class given is functional, organism-based.

`CC(=O)Nc1ccc(-n2nc3c(=O)[nH]nc(N)c3c2-c2oc3cc(C(=O)Nc4cccc(C(F)(F)F)c4)ccc3c2C)cc1`: the result in experiment [1], in experiment [2], in [3], in experiment [4], in experiment [6] and in [7] was Active. Also, the result in experiment [8], in [9], in [10], in experiment [11], in experiment [12] and in experiment [13] was Active. Moreover, the outcome in experiment [14], in experiment [15], in experiment [16] and in experiment [19] was Active. Also, the Activity result in experiment [5] is “Dose-Dependent Effect”; in experiment [17] it was 45%; in experiment [18], “Dose-Dependent Effect”.
